Like-named read-outs stand apart in the source and are kept apart here.
What was measured:
Test in all cases: TGFα-shedding assay-based GPCR screening with chimeric Gα subunit proteins
Type in all cases: cell-based
[1] = biological target: T1, 348 GPCRs (Homo sapiens, UniProt Q8NFN8); conditions: 10µM, Favipiravir 100μM
T1 construct: expressed in transfected cells; host or cells: HEK293A
T1 sequence (Q8NFN8 1-814): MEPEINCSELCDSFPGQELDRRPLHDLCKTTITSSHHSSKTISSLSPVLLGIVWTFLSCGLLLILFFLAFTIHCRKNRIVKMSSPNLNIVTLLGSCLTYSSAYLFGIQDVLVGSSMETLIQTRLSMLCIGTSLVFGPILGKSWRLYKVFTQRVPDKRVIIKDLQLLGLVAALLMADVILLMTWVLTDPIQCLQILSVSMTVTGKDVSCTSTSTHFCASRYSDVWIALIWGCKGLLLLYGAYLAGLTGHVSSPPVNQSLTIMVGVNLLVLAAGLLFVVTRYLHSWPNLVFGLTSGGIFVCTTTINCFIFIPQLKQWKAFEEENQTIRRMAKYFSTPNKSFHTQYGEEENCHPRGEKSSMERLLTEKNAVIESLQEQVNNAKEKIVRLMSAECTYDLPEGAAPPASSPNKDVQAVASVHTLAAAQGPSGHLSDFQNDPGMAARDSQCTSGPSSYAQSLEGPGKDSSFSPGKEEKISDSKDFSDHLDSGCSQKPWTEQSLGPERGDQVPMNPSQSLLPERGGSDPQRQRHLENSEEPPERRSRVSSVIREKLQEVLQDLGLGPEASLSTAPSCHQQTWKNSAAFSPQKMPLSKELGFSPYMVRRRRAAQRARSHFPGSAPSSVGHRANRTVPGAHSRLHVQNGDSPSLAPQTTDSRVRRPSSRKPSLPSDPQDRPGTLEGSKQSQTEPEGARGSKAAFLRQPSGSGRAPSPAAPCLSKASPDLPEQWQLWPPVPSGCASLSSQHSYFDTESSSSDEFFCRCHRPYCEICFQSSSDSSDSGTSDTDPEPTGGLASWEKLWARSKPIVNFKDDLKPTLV

[2] = biological target: T2, 348 GPCRs (Homo sapiens, UniProt P34995); conditions: 10µM, Favipiravir 100μM
T2 construct: expressed in transfected cells; host or cells: HEK293A
T2 sequence (P34995 1-402): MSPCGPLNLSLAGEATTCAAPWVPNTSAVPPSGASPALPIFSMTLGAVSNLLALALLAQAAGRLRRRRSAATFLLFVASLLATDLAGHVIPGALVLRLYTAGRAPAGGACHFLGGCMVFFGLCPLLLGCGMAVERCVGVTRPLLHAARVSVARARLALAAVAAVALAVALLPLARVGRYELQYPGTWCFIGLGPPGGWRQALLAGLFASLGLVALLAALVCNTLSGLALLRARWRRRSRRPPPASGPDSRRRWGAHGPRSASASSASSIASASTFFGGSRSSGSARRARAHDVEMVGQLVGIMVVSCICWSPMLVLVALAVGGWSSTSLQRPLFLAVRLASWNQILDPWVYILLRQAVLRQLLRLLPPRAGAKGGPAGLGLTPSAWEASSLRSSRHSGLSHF

[3] = biological target: T3, 348 GPCRs (Homo sapiens, UniProt P60893); conditions: 10µM, Favipiravir 100μM
T3 construct: expressed in transfected cells; host or cells: HEK293A
T3 sequence (P60893 whole entry): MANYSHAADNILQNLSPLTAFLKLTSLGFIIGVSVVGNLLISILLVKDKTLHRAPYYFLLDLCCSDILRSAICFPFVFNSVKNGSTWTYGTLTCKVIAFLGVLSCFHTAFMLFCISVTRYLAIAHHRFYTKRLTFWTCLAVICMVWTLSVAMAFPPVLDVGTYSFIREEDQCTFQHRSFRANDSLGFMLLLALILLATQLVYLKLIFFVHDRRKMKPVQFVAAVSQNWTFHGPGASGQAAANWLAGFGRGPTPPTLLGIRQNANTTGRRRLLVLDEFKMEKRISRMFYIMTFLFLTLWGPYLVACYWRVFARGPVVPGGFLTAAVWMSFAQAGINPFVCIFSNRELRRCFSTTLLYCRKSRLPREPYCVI

[4] = biological target: T4, 348 GPCRs (Homo sapiens, UniProt O15303); conditions: 10µM, Favipiravir 100μM
T4 construct: expressed in transfected cells; host or cells: HEK293A
T4 sequence (O15303 25-877): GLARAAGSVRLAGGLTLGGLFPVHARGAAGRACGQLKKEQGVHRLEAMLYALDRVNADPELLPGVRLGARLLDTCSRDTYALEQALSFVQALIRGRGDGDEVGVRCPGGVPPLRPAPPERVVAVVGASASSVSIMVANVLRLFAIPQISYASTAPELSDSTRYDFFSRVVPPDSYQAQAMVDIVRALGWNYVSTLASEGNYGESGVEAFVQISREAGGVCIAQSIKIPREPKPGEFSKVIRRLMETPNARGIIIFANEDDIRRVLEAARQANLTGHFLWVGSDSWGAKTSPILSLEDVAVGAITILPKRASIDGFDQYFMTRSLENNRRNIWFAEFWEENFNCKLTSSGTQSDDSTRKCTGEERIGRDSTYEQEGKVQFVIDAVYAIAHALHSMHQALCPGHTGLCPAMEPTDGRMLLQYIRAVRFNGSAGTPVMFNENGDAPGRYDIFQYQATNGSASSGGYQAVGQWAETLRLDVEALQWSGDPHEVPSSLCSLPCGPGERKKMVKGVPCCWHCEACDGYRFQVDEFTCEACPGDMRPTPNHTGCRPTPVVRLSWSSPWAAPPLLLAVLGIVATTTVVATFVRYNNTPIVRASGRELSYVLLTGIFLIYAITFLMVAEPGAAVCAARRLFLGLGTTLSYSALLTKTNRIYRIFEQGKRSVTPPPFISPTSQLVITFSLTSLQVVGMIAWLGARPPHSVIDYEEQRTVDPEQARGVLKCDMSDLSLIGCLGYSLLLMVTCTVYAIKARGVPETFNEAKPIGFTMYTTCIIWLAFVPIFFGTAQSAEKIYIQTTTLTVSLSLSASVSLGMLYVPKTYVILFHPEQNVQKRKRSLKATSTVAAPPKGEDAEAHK

[5] = biological target: T5, 348 GPCRs (Homo sapiens, UniProt O43603); conditions: 10µM, Favipiravir 100μM
T5 construct: expressed in transfected cells; host or cells: HEK293A
T5 sequence (O43603 1-387): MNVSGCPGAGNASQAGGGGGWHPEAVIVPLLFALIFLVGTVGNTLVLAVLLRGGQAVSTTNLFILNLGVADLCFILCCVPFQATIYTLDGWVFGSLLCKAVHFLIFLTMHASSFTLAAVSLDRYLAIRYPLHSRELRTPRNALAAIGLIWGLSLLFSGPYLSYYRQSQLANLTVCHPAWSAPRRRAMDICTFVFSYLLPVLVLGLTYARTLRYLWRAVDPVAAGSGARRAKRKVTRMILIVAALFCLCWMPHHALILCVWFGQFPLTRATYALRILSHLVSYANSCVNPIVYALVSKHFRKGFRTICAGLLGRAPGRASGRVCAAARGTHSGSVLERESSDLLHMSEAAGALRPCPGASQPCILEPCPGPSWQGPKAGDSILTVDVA

[6] = biological target: T6, 348 GPCRs (Homo sapiens, UniProt P18089)
T6 construct: expressed in transfected cells; host or cells: HEK293A
T6 sequence (P18089 1-450): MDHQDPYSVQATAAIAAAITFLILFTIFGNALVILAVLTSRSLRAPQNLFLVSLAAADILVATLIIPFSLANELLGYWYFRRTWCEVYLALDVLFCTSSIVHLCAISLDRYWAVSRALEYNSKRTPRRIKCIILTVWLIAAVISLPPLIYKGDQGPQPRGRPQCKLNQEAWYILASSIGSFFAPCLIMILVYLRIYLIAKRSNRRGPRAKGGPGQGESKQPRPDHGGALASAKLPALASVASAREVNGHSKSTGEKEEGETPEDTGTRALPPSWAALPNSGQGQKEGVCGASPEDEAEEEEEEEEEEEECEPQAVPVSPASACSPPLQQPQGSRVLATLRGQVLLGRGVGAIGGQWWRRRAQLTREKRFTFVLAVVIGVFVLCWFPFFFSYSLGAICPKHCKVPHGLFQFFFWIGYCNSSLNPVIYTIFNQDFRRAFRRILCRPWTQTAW

[7] = read-out: % GPCR activation compared to TPA, GPR156 (G protein-coupled receptor 156)
[8] = read-out: % GPCR activation compared to TPA, EP1 (prostaglandin E receptor 1)
[9] = read-out: % GPCR activation compared to TPA, GPR85 (G protein-coupled receptor 85)
[10] = read-out: % GPCR activation compared to TPA, GRM6 (glutamate receptor, metabotropic 6)
[11] = read-out: % GPCR activation compared to TPA, GAL2 (galanin receptor 2)
[12] = read-out: % GPCR activation compared to TPA, GPCR α2B (adrenoceptor alpha 2B)
[13] = GPR156 (G protein-coupled receptor 156), read-out: % GPCR activation compared to TPA
[14] = EP1 (prostaglandin E receptor 1), read-out: % GPCR activation compared to TPA
[15] = GPR85 (G protein-coupled receptor 85), read-out: % GPCR activation compared to TPA
[16] = GRM6 (glutamate receptor, metabotropic 6), read-out: % GPCR activation compared to TPA
[17] = GAL2 (galanin receptor 2), read-out: % GPCR activation compared to TPA
[18] = GPCR α2B (adrenoceptor alpha 2B), read-out: % GPCR activation compared to TPA

SMILES	activation at 10 µM [1, 13]	activation at 100 µM [2, 14]	activation at 100 µM [3, 15]	activation at 10 µM [4, 16]	activation at 100 µM [5, 17]	activation at 10 µM [6, 18]	activation at 100 µM ([6]; GPCR α2B (adrenoceptor alpha 2B), 100μM, read-out: % GPCR activation compared to TPA)	activation at 10 µM [1, 7]	activation at 100 µM [2, 8]	activation at 100 µM [3, 9]	activation at 10 µM [4, 10]	activation at 100 µM [5, 11]	activation at 10 µM [6, 12]
CC(C)OC(=O)[C@H](C)N[P@](=O)(OC[C@H]1O[C@@H](n2ccc(=O)[nH]c2=O)[C@](C)(F)[C@@H]1O)Oc1ccccc1 [sofosbuvir]								-4.51%	-0.685%	-3.71%	2.66%	3.27%	0.619%
CC(C)C(=O)OC[C@H]1O[C@@H](n2ccc(NO)nc2=O)[C@H](O)[C@@H]1O [molnupiravir]	-4.86%	0.204%	-2.83%	-2.76%	-6.16%	-2.53%							
CCC(CC)COC(=O)[C@H](C)N[P@](=O)(OC[C@H]1O[C@@](C#N)(c2ccc3c(N)ncnn23)[C@H](O)[C@@H]1O)Oc1ccccc1 [remdesivir]								4.05%	0.488%	6.64%	-1.74%	0.971%	5.93%

Second part, led by results:

activation at 10 µM [1, 13]	activation at 100 µM [2, 14]	activation at 100 µM [3, 15]	activation at 10 µM [4, 16]	activation at 100 µM [5, 17]	activation at 10 µM [6, 18]	activation at 100 µM ([6]; GPCR α2B (adrenoceptor alpha 2B), 100μM, read-out: % GPCR activation compared to TPA)	SMILES	activation at 10 µM [1, 7]	activation at 100 µM [2, 8]	activation at 100 µM [3, 9]	activation at 10 µM [4, 10]	activation at 100 µM [5, 11]	activation at 10 µM [6, 12]
2.77%	-1.04%	3.44%	-0.482%	-0.244%		-4.03%	NC(=O)c1nc(F)cnc1O [favipiravir, 6-fluoro-3-hydroxy-2-pyrazinecarboxamide]						
1.38%	-1.84%	2.04%	-1.17%	-0.925%	-2.28%		N#C[C@@]1(c2ccc3c(N)ncnn23)O[C@H](CO)[C@@H](O)[C@H]1O [GS441524]						
